# Laboratory results as given in patent US12509459B2, “Inhibitors of NLRP3 inflammasome” (BioAge Labs, Inc., priority 2024, dated 2025).
# Biological target: NLRP3 (Homo sapiens, UniProt Q96P20)
# Assay: THP-1 cell-based NLRP3 activation assay
# Set-up: endogenous in cells; host or cells: THP-1 cells (PMA-differentiated, LPS-primed, nigericin-stimulated)
# Conditions: PMA-differentiated THP-1 cells, LPS 100 ng/mL then 10 μM nigericin
# Description: THP-1 cells are cultured in complete media (CM) until they reach logarithmic growth and achieve a viability >90%. CM is composed of RPMI-1640 (+Glutamax)/10% fetal bovine serum/55 μM β-mercaptoethanol/pen/strep. Cells are spun down and resuspended to 1,000,000 cells/mL in CM containing either 20 nM or 500 nM PMA. 150,000 cells (150 μL) are then added to each well of a 96-well TC plate and incubated for either 24 hr or 3 hr, respectively, in a standard cell culture incubator (37° C.; 5% CO2). After this incubation, the plate is tilted and media carefully removed. 200 μL of CM containing 100 ng/mL LPS is then added to the wells and the cells incubated an additional 3 hrs. The media is again removed and replaced with Opti-Mem medium containing pre-determined dilutions of test compounds in replicate wells. After a 30 min incubation, 10 μM nigericin (final concentration) in Opti-Mem medium with the corresponding concentration of compound is added to the wells for an additional 1 hr. Positive control wells contain 10 μM nigericin in Opti-Mem in the absence of test compound, while negative control wells contain Opti-Mem only. […] Once supernatants are removed, the relative viability of adherent cells in the 96-well TC plate are determined using a CellTiter-Glo® luminescent cell viability assay (Promega).
# NLRP3, sequence (Q96P20 whole entry): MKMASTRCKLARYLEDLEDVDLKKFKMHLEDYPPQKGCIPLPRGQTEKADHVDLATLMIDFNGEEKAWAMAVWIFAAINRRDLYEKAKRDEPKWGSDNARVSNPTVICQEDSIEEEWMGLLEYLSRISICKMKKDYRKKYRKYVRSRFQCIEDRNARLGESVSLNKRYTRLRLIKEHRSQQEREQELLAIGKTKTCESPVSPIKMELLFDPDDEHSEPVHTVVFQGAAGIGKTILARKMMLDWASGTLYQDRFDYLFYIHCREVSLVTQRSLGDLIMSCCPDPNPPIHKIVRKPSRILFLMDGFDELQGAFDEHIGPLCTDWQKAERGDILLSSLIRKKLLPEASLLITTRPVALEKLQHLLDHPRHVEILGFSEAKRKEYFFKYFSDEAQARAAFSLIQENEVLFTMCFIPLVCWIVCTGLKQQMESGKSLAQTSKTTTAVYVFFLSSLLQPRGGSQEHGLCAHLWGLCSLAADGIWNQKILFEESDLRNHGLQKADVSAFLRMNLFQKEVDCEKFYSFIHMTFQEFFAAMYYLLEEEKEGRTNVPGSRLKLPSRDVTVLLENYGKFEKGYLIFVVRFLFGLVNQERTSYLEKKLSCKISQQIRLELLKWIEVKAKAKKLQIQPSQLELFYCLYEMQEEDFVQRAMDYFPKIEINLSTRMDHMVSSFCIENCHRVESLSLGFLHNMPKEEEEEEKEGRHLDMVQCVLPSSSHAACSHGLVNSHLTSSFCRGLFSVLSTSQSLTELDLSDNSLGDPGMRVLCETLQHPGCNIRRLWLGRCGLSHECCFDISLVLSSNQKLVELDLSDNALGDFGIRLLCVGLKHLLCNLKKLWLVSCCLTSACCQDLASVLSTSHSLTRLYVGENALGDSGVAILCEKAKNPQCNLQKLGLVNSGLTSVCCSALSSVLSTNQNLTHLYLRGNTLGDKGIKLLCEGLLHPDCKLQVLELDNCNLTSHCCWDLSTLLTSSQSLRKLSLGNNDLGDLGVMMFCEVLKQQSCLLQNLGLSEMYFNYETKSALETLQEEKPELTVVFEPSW
row,IC50 [µM],Structure (SMILES)
1,< 0.1,CCOc1cc(C(=O)N(CCN)Cc2cncc3cn[nH]c23)ccc1-c1cccc(F)c1 [Compound 055]
2,< 0.1,CCOc1cc(C(=O)N(Cc2cncc3cn[nH]c23)[C@H]2C[C@@H](NC)C2)ccc1-c1cccc(Cl)c1 [Compound 238]
3,< 0.1,CCOc1cc(C(=O)N(C)[C@H](c2cncc3cn[nH]c23)C2CN(C)C2)ccc1-c1cccc(Cl)c1 [Compound 148]
4,< 0.1,CCOc1cc(C(=O)N(CCN2C[C@@H](F)C[C@H](F)C2)Cc2cncc3cn[nH]c23)ccc1-c1cccc(F)c1 [Compound 111]
5,0.1 to 0.5,CCOc1cc(C(=O)N(C)[C@H](CN(C)C)c2cccc3cn[nH]c23)ccc1-c1cccc(Cl)c1 [Compound 220]
6,< 0.1,CCOc1cc(C(=O)N(Cc2cncc3cn[nH]c23)[C@H]2C[C@@H](N)C2)ccc1-c1cccc(C#N)c1 [Compound 289]
7,< 0.1,CCOc1cc(C(=O)N(Cc2ccc(C)c3cn[nH]c23)[C@H]2C[C@@H](NC)C2)ccc1-c1cccc(Cl)c1 [Compound 286]
8,< 0.1,CCOc1cc(C(=O)N(Cc2cccc3cn[nH]c23)[C@H]2C[C@@H](NC)C2)ccc1-c1cccc(C#N)c1 [Compound 265]
9,1 to 15,CCOc1cc(C(=O)N(C[C@H](C)O)[C@H](C)c2cnc(C)c3cn[nH]c23)ccc1-c1cccc(F)c1 [Compound 059]
10,< 0.1,CCOc1cc(C(=O)N(C)[C@H](CCN(C)C)c2cncc3cn[nH]c23)ccc1C1CCC1 [Compound 156]
11,1 to 15,CCOc1cc(C(=O)N(C)[C@H](CCNC)c2cncc3cn[nH]c23)ccc1-c1cccc(F)c1 [Compound 039]
12,< 0.1,CCOc1cc(C(=O)N(CCO)Cc2cncc3cn[nH]c23)ccc1-c1cccc(F)c1 [Compound 041]
13,< 0.1,CCOc1cc(C(=O)N(Cc2cccc3cn[nH]c23)[C@H]2C[C@@H](N(C)C)C2)ccc1-c1cccc(F)c1 [Compound 251]
14,< 0.1,CCOc1cc(C(=O)N(C)[C@@H](CN(C)C)c2cncc3cn[nH]c23)ccc1-c1cccc(Cl)c1 [Compound 126]
15,< 0.1,CCOc1cc(C(=O)N(C)[C@@H](CCN(C)C)c2cccc3cn[nH]c23)ccc1-c1ccccc1 [Compound 212]
16,< 0.1,CCOc1cc(C(=O)N(C)[C@H](CCN2CCCC2)c2cncc3cn[nH]c23)ccc1-c1cccc(F)c1 [Compound 104]
17,< 0.1,CN(C(=O)c1ccc(-c2cccc(F)c2)c(OC2CC2)c1)[C@H](CC[N+](C)(C)[O-])c1cncc2cn[nH]c12 [Compound 165]
18,< 0.1,CCOc1cc(C(=O)N(Cc2cncc3cn[nH]c23)C2CC(NC)C2)ccc1-c1cccc(Cl)c1 (centres unmarked) [Compound 236]
19,< 0.1,Cc1ccc([C@H](CCN(C)C)N(C)C(=O)c2ccc(-c3cccc(F)c3)c(OC3CC3)c2)c2[nH]ncc12 [Compound 203]
20,< 0.1,CCOc1cc(C(=O)N(Cc2cnc(C)c3cn[nH]c23)C2CC2O)ccc1-c1cccc(F)c1 (centres unmarked) [Compound 045]
21,1 to 15,CCOc1cc(C(=O)N(Cc2cncc3cn[nH]c23)C2CC(NC)C2)ccc1-c1ccccc1 (centres unmarked) [Compound 237]
22,0.1 to 0.5,"CCOc1cc(C(=O)N(C)[C@H](c2cncc3cn[nH]c23)[C@@H]2CCNC2)ccc1-c1cccc(F)c1 (single isomer, unassigned) [Compound 088]"
23,> 15,CCOc1cc(C(=O)N(C[C@H](C)O)[C@@H](C)c2cnc(C)c3cn[nH]c23)ccc1-c1cccc(F)c1 [Compound 061]
24,< 0.1,CCOc1cc(C(=O)N(C)[C@H](CCN(C)CCO)c2cncc3cn[nH]c23)ccc1-c1cccc(Cl)c1 [Compound 230]
25,< 0.1,CCOc1cc(C(=O)N(CCN2CCCC2)Cc2cncc3cn[nH]c23)ccc1-c1cccc(F)c1 [Compound 119]

row,IC50 [µM],Structure (SMILES)
1,< 0.1,CCOc1cc(C(=O)N(C)[C@H](CC[N+]([O-])(CC)CC)c2cncc3cn[nH]c23)ccc1-c1cccc(Cl)c1 [Compound 255]
2,< 0.1,CCOc1cc(CN(CCN(CC)CC)Cc2cncc3cn[nH]c23)ccc1-c1cccc(F)c1 [Compound 120]
3,< 0.1,CN(C)CC[C@H](c1cncc2cn[nH]c12)N(C)C(=O)c1ccc(-c2cccc(Cl)c2)c(OC2CC2)c1 [Compound 102]
4,< 0.1,CCOc1cc(C(=O)N(C)[C@H](CCN(C)C)c2cnc(C)c3cn[nH]c23)ccc1-c1cccc(Cl)c1 [Compound 076]
5,> 15,Cc1ncc([C@H](CCO)N(C)C(=O)c2ccc(-c3cccc(F)c3)c(OC3CC3)c2)c2[nH]ncc12 [Compound 031]
6,< 0.1,CCOc1cc(C(=O)N(C)[C@H](CCN(C)C)c2cnc(CO)c3cn[nH]c23)ccc1-c1cccc(F)c1 [Compound 099]
7,< 0.1,CCOc1cc(C(=O)N(Cc2cccc3cn[nH]c23)[C@H]2C[C@@H](N)C2)ccc1-c1cccc(F)c1 [Compound 250]
8,< 0.1,CCOc1cc(C(=O)N(C)[C@H](CCN2C[C@@H](F)[C@@H](F)C2)c2cncc3cn[nH]c23)ccc1-c1cccc(F)c1 [Compound 086]
9,< 0.1,CCOc1cc(C(=O)N(C)[C@H](CO)c2cnc(CO)c3cn[nH]c23)ccc1-c1cccc(Cl)c1 [Compound 036]
10,< 0.1,CCOc1cc(C(=O)N(C)[C@H](c2cncc3cn[nH]c23)C2CN(C)C2)ccc1-c1ccccc1 [Compound 133]
11,< 0.1,CCOc1cc(C(=O)N(C)[C@H](CCN(C)CC)c2cccc3cn[nH]c23)ccc1-c1cccc(F)c1 [Compound 214]
12,< 0.1,CCOc1cc(C(=O)N(C)[C@H](c2cccc3cn[nH]c23)C2CN(C)C2)ccc1-c1cccc(F)c1 [Compound 298]
13,< 0.1,CCOc1cc(C(=O)N(C)[C@H](CN(CC)CC)c2cncc3cn[nH]c23)ccc1-c1cccc(F)c1 [Compound 127]
14,< 0.1,CCOc1cc(C(=O)N(C)[C@H](CCN)c2cncc3cn[nH]c23)ccc1-c1ccccc1 [Compound 140]
15,0.1 to 0.5,CN(C(=O)c1ccc(-c2cccc(Cl)c2)c(OC2CC2)c1)[C@@H](CCO)c1cncc2cn[nH]c12 [Compound 012]
16,1 to 15,CCOc1cc(C(=O)N(C)[C@H](CN(C)C)c2cncc3cn[nH]c23)ccc1C(C)C [Compound 208]
17,0.1 to 0.5,CCOc1cc(C(=O)N(C)[C@H](CO)c2cnc(CC)c3cn[nH]c23)ccc1-c1cc(C)cc(F)c1 [Compound 032]
18,1 to 15,CCOc1cc(C(=O)N(C)[C@@H](CCO)c2cncc3cn[nH]c23)ccc1-c1ccccc1 [Compound 010]
19,< 0.1,CCOc1cc(C(=O)N(C)[C@@H](CO)c2cnc(C)c3cn[nH]c23)ccc1-c1cccc(F)c1 [Compound 027]
20,< 0.1,CN(C(=O)c1ccc(-c2cccc(F)c2)c(OC2CC2)c1)[C@H](CCN1CCC1)c1cncc2cn[nH]c12 [Compound 225]
21,0.1 to 0.5,CCOc1cc(C(=O)N(C)[C@H](c2c[nH]cn2)c2cncc3cn[nH]c23)ccc1-c1cccc(F)c1 [Compound 267]
22,< 0.1,CCOc1cc(C(=O)N(C)[C@H](CCNC)c2cccc3cn[nH]c23)ccc1-c1cccc(Cl)c1 [Compound 233]
23,< 0.1,CCOc1cc(C(=O)N(Cc2cncc3cn[nH]c23)[C@H]2C[C@@H](N(C)C)C2)ccc1-c1cccc(F)c1 [Compound 244]
24,> 15,CCOc1cc(C(=O)N(C)[C@@H](CCO)c2cnc(C)c3cn[nH]c23)ccc1-c1ccccc1 [Compound 028]
25,< 0.1,CCOc1cc(C(=O)N(C)[C@@H](CN(CC)CC)c2cncc3cn[nH]c23)ccc1-c1cccc(F)c1 [Compound 128]
